In patent US20230167118A1, “DEGRADATION OF BRUTON'S TYROSINE KINASE (BTK) BY CONJUGATION OF BTK INIDBITORS WITH E3 LIGASE LIGAND AND METHODS OF USE” (BEIGENE, LTD., priority 2020, published 2023):

Tests used:
[1] = test system: HEK-293 cells; assay: HEK-293 Cytotoxicity Assay (CellTiter-Glo); format: cell-based; settings: Homo sapiens, HEK293, 72 h incubation, CellTiter-Glo luminescence
How it was run: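 HEK-293 cells treated 72 h with 8 concentrations (4-fold dilutions, 0.2% DMSO final). Viability read by CellTiter-Glo luminescence; IC50 from four-parameter logistic fit of % inhibition.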

[2] = target: T1, BTK (Homo sapiens, UniProt Q06187); assay: Cell Degradation: BTK degradation in TMD-8 cells, HTRF assay; format: cell-based; settings: 6 h treatment, IC50 (DC50) of BTK degradation
T1 construct: High control=Cell group with added DMSO and without compound, indicating microplate readings without BTK degradation; endogenous in cells; host or cells: TMD-8 cells
How it was run: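 TMD-8 cells treated 6 h with 8-dose 6-fold dilutions in 0.2% DMSO, then lysed and BTK quantified by HTRF (665/620 nm). Degradation % normalised to high/low controls; DC50 from four-parameter fit, Dmax as maximal degradation.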

T1 sequence (Q06187 whole entry): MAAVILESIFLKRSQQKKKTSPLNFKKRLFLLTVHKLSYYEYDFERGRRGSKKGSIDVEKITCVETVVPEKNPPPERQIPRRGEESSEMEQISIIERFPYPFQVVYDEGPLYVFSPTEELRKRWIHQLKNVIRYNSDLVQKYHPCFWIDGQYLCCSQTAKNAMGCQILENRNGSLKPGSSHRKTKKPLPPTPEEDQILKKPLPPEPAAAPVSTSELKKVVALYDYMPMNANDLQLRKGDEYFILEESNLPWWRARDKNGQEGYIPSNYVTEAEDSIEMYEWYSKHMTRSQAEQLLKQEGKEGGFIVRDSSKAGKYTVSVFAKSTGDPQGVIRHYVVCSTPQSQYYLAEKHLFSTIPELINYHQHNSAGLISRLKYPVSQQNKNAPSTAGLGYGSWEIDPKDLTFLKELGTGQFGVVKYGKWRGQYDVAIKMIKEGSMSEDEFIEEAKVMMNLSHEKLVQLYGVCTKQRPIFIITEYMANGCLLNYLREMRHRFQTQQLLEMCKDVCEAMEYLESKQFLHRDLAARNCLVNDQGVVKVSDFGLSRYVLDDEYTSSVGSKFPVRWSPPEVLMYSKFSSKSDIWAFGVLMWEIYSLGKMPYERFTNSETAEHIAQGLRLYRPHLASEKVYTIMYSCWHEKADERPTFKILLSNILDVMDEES

| Structure (SMILES) | IC50 [1] [nM] | DC50 [2] [nM] |
| --- | --- | --- |
| Cc1cc(-c2ncnc3[nH]c(-c4ccc(C5CCN(CCC6CCN(c7ccc(C8CCC(=O)NC8=O)cc7)CC6)CC5)cc4)cc23)ccc1CNC(=O)c1nc(C(C)(C)C)no1 (stereo not drawn) [Example 4, 3-(tert-butyl)-N-(4-(6-(4-(1-(2-(1-(4-(2,6-dioxopiperidin-3-yl)phenyl)piperidin-4-yl)ethyl)piperidin-4-yl)phenyl)-7H-pyrrolo[2,3-d]pyrimidin-4-yl)-2-methylbenzyl)-1,2,4-oxadiazole-5-carboxamide] | 3700 | 2.3 |
| Cc1cc(-c2ncnc3[nH]c(-c4ccc(N5CCN(CC6CCN(c7ccc(N8CCC(=O)NC8=O)c(C)c7)CC6)CC5)nc4)cc23)ccc1[C@@H](C)NC(=O)c1nc(C(C)(C)C)no1 [Example 58, (R)-3-(tert-butyl)-N-(1-(4-(6-(6-(4-((1-(4-(2,4-dioxotetrahydropyrimidin-1(2H)-yl)-3-methylphenyl)piperidin-4-yl)methyl)piperazin-1-yl)pyridin-3-yl)-7H-pyrrolo[2,3-d]pyrimidin-4-yl)-2-methylphenyl)ethyl)-1,2,4-oxadiazole-5-carboxamide] | > 10000 | 1.5 |
| Cc1nn(C2CCN(CC3CCN(c4ccc(N5CCC(=O)NC5=O)cc4)CC3)CC2)c(C)c1-c1cc2c(-c3cc(CO)c([C@@H](C)NC(=O)c4noc(C(C)(C)C)n4)cc3F)ncnc2[nH]1 [Example 149, (R)-5-(tert-butyl)-N-(1-(4-(6-(1-(1-((1-(4-(2,4-dioxotetrahydropyrimidin-1(2H)-yl)phenyl)piperidin-4-yl)methyl)piperidin-4-yl)-3,5-dimethyl-1H-pyrazol-4-yl)-7H-pyrrolo[2,3-d]pyrimidin-4-yl)-5-fluoro-2-(hydroxymethyl)phenyl)ethyl)-1,2,4-oxadiazole-3-carboxamide] | > 10000 | 0.27 |
| Cc1cc(-c2ncnc3[nH]c(-c4ccc(N5CCN(CC6CCN(c7ccc(C8CCC(=O)NC8=O)cc7)C6)CC5)cc4)cc23)ccc1[C@@H](C)NC(=O)c1nc(C(C)(C)C)no1 (stereo partly drawn) [Example 143, 3-(tert-butyl)-N-((1R)-1-(4-(6-(4-(4-((1-(4-(2,6-dioxopiperidin-3-yl)phenyl)pyrrolidin-3-yl)methyl)piperazin-1-yl)phenyl)-7H-pyrrolo[2,3-d]pyrimidin-4-yl)-2-methylphenyl)ethyl)-1,2,4-oxadiazole-5-carboxamide] | > 10000 | 8.42 |
| Cc1cc(-c2ncnc3[nH]c(-c4ccc(N5CCN(CC6CCN(c7ccc(N8CCC(=O)NC8=O)c(C)c7)CC6)CC5)nc4)cc23)ccc1[C@@H](C)NC(=O)c1noc(C2(C)CC2)n1 [Example 126, (R)-N-(1-(4-(6-(6-(4-((1-(4-(2,4-dioxotetrahydropyrimidin-1(2H)-yl)-3-methylphenyl)piperidin-4-yl)methyl)piperazin-1-yl)pyridin-3-yl)-7H-pyrrolo[2,3-d]pyrimidin-4-yl)-2-methylphenyl)ethyl)-5-(1-methylcyclopropyl)-1,2,4-oxadiazole-3-carboxamide] | > 10000 | 0.41 |
| Cc1cc(-c2ncnc3[nH]c(-c4ccc(N5CCN(CC6CCN(c7ccc(C8CCC(=O)NC8=O)cc7)CC6)CC5)cc4)cc23)ccc1[C@@H](C)NC(=O)c1nc(C(C)(C)C)no1 (stereo partly drawn) [Example 55, (R)-3-(tert-butyl)-N-(1-(4-(6-(4-(4-((1-(4-(2,6-dioxopiperidin-3-yl)phenyl)piperidin-4-yl)methyl)piperazin-1-yl)phenyl)-7H-pyrrolo[2,3-d]pyrimidin-4-yl)-2-methylphenyl)ethyl)-1,2,4-oxadiazole-5-carboxamide] | > 10000 | 3.2 |
| Cc1c([C@@H](C)NC(=O)c2noc(C(C)(C)C)n2)ccc(-c2ncnc3[nH]c(-c4ccc(N5CCN(CC6CCN(c7ccc(N8CCC(=O)NC8=O)cc7)CC6)CC5)nc4)cc23)c1F [Example 140, (R)-5-(tert-butyl)-N-(1-(4-(6-(6-(4-((1-(4-(2,4-dioxotetrahydropyrimidin-1(2H)-yl)phenyl)piperidin-4-yl)methyl)piperazin-1-yl)pyridin-3-yl)-7H-pyrrolo[2,3-d]pyrimidin-4-yl)-3-fluoro-2-methylphenyl)ethyl)-1,2,4-oxadiazole-3-carboxamide] | > 10000 | 1.24 |
| Cc1cc(-c2ncnc3[nH]c(-c4nn(C)c(C5=CCN(CC6CCN(c7ccc(N8CCC(=O)NC8=O)cc7)CC6)CC5)c4C)cc23)ccc1[C@@H](C)NC(=O)c1nc(C(C)(C)C)no1 [Example 174, (R)-3-(tert-butyl)-N-(1-(4-(6-(5-(1-((1-(4-(2,4-dioxotetrahydropyrimidin-1(2H)-yl)phenyl)piperidin-4-yl)methyl)-1,2,3,6-tetrahydropyridin-4-yl)-1,4-dimethyl-1H-pyrazol-3-yl)-7H-pyrrolo[2,3-d]pyrimidin-4-yl)-2-methylphenyl)ethyl)-1,2,4-oxadiazole-5-carboxamide] | > 10000 | 1.51 |
| Cc1cc(-c2ncnc3[nH]c(-c4ccc(N5CCN(CC6CCN(c7ccc(N8CCC(=O)NC8=O)cc7)CC6)CC5)cn4)cc23)ccc1[C@@H](C)NC(=O)c1noc(C(C)(C)C)n1 [Example 133, (R)-5-(tert-butyl)-N-(1-(4-(6-(5-(4-((1-(4-(2,4-dioxotetrahydropyrimidin-1(2H)-yl)phenyl)piperidin-4-yl)methyl)piperazin-1-yl)pyridin-2-yl)-7H-pyrrolo[2,3-d]pyrimidin-4-yl)-2-methylphenyl)ethyl)-1,2,4-oxadiazole-3-carboxamide] | > 10000 | 0.8 |
| Cc1cc(-c2ncnc3[nH]c(-c4ccc(N5CCN(CC6CCN(c7ccc(N8CCC(=O)NC8=O)c(C)c7)CC6)CC5)cn4)cc23)ccc1[C@@H](C)NC(=O)c1noc(C(C)(C)C)n1 [Example 129, (R)-5-(tert-butyl)-N-(1-(4-(6-(5-(4-((1-(4-(2,4-dioxotetrahydropyrimidin-1(2H)-yl)-3-methylphenyl)piperidin-4-yl)methyl)piperazin-1-yl)pyridin-2-yl)-7H-pyrrolo[2,3-d]pyrimidin-4-yl)-2-methylphenyl)ethyl)-1,2,4-oxadiazole-3-carboxamide] | > 10000 | 0.33 |
| Cc1cc(-c2ncnc3[nH]c(-c4ccc(C5CN(CC6CCN(c7ccc(N8CCC(=O)NC8=O)cc7)CC6)C5)nc4)cc23)ccc1[C@@H](C)NC(=O)c1nc(C(C)(C)C)no1 [Example 179, (R)-3-(tert-butyl)-N-(1-(4-(6-(6-(1-((1-(4-(2,4-dioxotetrahydropyrimidin-1(2H)-yl)phenyl)piperidin-4-yl)methyl)azetidin-3-yl)pyridin-3-yl)-7H-pyrrolo[2,3-d]pyrimidin-4-yl)-2-methylphenyl)ethyl)-1,2,4-oxadiazole-5-carboxamide] | 6040 | 0.74 |
| Cc1cc(CNC(=O)c2ccc(C(C)(C)O)cc2F)c(F)cc1-c1ncnc2[nH]c(-c3ccc(C4CCN(CC5CCN(c6ccc(N7CCC(=O)NC7=O)cc6)CC5)CC4)cc3)cc12 [Example 36, N-(4-(6-(4-(1-((1-(4-(2,4-dioxotetrahydropyrimidin-1(2H)-yl)phenyl)piperidin-4-yl)methyl)piperidin-4-yl)phenyl)-7H-pyrrolo[2,3-d]pyrimidin-4-yl)-2-fluoro-5-methylbenzyl)-2-fluoro-4-(2-hydroxypropan-2-yl)benzamide] | > 10000 | 1.5 |
